Data reported in PMC6348443 (Journal of Medicinal Chemistry, 2018).
Where a name gives a salt, the structure may show the parent alone. Read-outs that look alike come from different tables or passages of the source.

Assays:
MOR [1] = molecular target: T1, MOR (Homo sapiens, UniProt P35372); assay: [35S]GTPγS binding assay, CHO-hMOR membranes; type: biochemical; settings: for EC50: [35S]GTPγS, CHO human MOR membranes, read-out: MOR EC50; for Emax: relative to reference full agonist DAMGO, read-out: MOR % stim.
T1 construct: host or cells: CHO (CHO-hMOR)

MOR [2] = molecular target: T1, MOR; assay: competition radioligand binding, CHO cell membranes expressing human MOR, [3H]DAMGO
DOR [3] = molecular target: T2, DOR (Rattus norvegicus, UniProt P33533); assay: competition radioligand binding, rat brain membranes, [3H][Ile5,6]deltorphin II; settings: for Ki: rat brain membranes, read-out: opioid receptor binding Ki DOR
T2 construct: Membranes were prepared from Sprague-Dawley rat brains or guinea-pig brains according to the described procedures; tissue Labortierkunde und Laborgenetik, Medizinische Universität Wien; host or cells: Sprague-Dawley rat brain without cerebella

KOR = molecular target: T3, KOR (Cavia porcellus, UniProt P41144); assay: competition radioligand binding, guinea-pig brain membranes, [3H]U69,593; settings: guinea-pig brain membranes; read-out: opioid receptor binding Ki KOR
T3 construct: Membranes were prepared from Sprague-Dawley rat brains or guinea-pig brains according to the described procedures; tissue Labortierkunde und Laborgenetik, Medizinische Universität Wien; host or cells: guinea-pig brain without cerebella

DOR [4] = molecular target: T4, DOR (Homo sapiens, UniProt P41143); assay: competition radioligand binding, CHO cell membranes expressing human DOR, [3H]diprenorphine
T4 construct: host or cells: CHO (CHO-hDOR)

[5] = test system: peripheral opioid receptors; assay: antagonism by naloxone methiodide in the acetic acid-induced writhing assay; type: in vivo, mouse; settings: sc co-administration with naloxone methiodide 1 mg/kg; agonist 50 or 200 μg/kg sc; 30 min
From the text: To determine whether targeted 6-amino acid and 6-dipeptide analogues inhibit writhing behavior in mice through peripheral opioid receptors activation, we used naloxone methiodide.[27]
Values are shown as mean of writhes ± SEM (n = 6–7 mice per group). ***P < 0.001 vs control group; ^#P < 0.05, ^##P < 0.01 and ^###P < 0.001 vs agonist treated group, ANOVA with Tukey’s post hoc test.
Writhing was induced in male CD1 mice by ip injection of a 0.6% acetic acid aqueous solution as described previously.[48],[62] Groups of mice were administered sc different doses of test compound or saline (control), and 5 min prior to testing (25 min after drug or saline), each animal received an ip injection of acetic acid solution. Each mouse was placed in individual transparent Plexiglas chambers, and the number of writhes was counted during a 10 min observation period. […] For the antagonism study, naloxone methiodide was sc co-administered with the respective opioid agonist, and writhing was assessed as described above.

Row | Structure (SMILES) | EC50 (MOR [1]) [nM] | functional profile at MOR (full/partial agonist) (MOR [1]; full agonist ≥85% of the response to DAMGO) | Emax (MOR [1]) [%] | Ki (MOR [2]; CHO cell membranes expressing human MOR, read-out: Ki MOR) [nM] | Ki (DOR [3]) [nM] | Ki (KOR) [nM] | Ki (DOR [4]; CHO cell membranes expressing human DOR, read-out: Ki DOR) [nM] | effect of naloxone methiodide on antinociceptive effect [5] | Ki (MOR [2]) [nM] | decreased DOR affinity vs 6β analogue (DOR [3]; rat brain, 18a vs 18b, 19a vs 19b) [times] | Ki (DOR [4]) [nM]
1 | CO[C@@]12CC[C@H](N[C@H](C(=O)N[C@@H](Cc3ccc(O)cc3)C(=O)O)C(C)C)[C@@H]3Oc4c(O)ccc5c4[C@@]31CCN(C)[C@@H]2C5 [Compound 22a, (2S)-2-[[(4,5α-Epoxy-3-hydroxy-14β-methoxy-17-methylmorphinan-6α-yl)amino]-(2S)-3-methylbutyrylamino]-3-(4-hydroxyphenyl)propionic Acid] | 0.89 ± 0.04 | partial agonists | ~80 | 1.29 ± 0.13 | 1.19 ± 0.42 | 69 ± 2.5 | 1.46 ± 0.59 | reversed |  |  | 
2 | CC[C@H](N[C@H]1CC[C@@]2(OC)[C@H]3Cc4ccc(O)c5c4[C@@]2(CCN3C)[C@H]1O5)C(=O)O [Compound 19a, (2S)-2-[(4,5α-Epoxy-3-hydroxy-14β-methoxy-17-methylmorphinan-6α-yl)amino]-2-ethylacetic Acid Dihydrochloride] | 5.12 ± 0.09 |  | 88 ± 2 |  | 37.5 ± 3.4 | 144 ± 7 |  | reversed | 0.95 ± 0.13 | 29 | 38 ± 15.4
